Data on 15 compounds can be found in patent US7282507B2, “Indole derivatives as selective androgen receptor modulators (SARMS)” (Janssen Pharmaceutica N.V., priority 2004, dated 2007).

The inhibition is the change of the read-out against control, counted positive when it falls. A word on the IC50: it is the midpoint of a concentration-inhibition curve. In general, EC50 refers to the midpoint of the concentration-response curve.

The target in assay [1] is T1, androgen receptor (rat ventral prostate cytosol) (Rattus norvegicus, UniProt P15207).
T1 construct: from tissue; host or cells: ventral prostate cytosol of castrated male Sprague Dawley or Wistar rats
T1 sequence (P15207 1-902): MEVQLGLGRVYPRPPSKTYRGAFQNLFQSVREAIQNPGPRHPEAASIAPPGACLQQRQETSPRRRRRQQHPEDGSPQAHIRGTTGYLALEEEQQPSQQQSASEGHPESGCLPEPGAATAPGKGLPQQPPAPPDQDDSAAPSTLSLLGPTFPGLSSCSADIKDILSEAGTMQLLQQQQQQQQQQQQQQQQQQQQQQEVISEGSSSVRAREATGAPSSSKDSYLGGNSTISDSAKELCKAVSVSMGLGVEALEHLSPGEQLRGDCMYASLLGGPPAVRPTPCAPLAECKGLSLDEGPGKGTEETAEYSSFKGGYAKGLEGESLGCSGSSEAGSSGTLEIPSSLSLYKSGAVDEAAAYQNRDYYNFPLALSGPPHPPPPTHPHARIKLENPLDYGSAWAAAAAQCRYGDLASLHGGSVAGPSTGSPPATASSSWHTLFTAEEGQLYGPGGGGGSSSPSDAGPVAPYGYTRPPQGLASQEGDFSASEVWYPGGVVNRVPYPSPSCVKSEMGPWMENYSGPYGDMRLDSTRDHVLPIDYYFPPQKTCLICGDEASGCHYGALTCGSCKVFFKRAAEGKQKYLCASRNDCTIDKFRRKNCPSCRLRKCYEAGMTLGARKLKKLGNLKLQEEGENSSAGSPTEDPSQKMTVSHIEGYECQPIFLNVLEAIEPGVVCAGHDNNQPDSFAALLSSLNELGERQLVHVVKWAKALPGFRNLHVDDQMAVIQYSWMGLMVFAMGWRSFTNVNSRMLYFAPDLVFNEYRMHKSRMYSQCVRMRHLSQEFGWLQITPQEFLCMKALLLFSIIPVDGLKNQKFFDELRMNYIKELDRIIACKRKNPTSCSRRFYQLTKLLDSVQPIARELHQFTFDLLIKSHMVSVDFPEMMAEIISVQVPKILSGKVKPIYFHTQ
The assay can be described thus: Androgen Receptor Binding Using Rat Ventral Prostate Cytosol. Conditions: for IC50: read-out: IC50 (nM), Androgen Receptor Binding (Rat Cytosol). As for the experimental part:
The assay was run on a 96 well plate with each well filled with a total reaction volume 150 μL, of a solution containing 5 pmol androgen receptor LBD (Panvera) or 30 μL of freshly prepared rat cytosol, 0.5 nM [^3H] […] (TED buffer contains 10 mM Tris.HCl pH 7.4, 1 mM sodium molybdate, 1.5 mM EDTA, 1 mM DTT and 10% (v/v) glycerol.)
On day one, the solution containing receptor, tracer and TED buffer was distributed into a 96 well plate. Diluted test compound or control vehicle was then added to individual wells and the plate incubated at 4° C. overnight.
On day two, to each well was then added 20 μL human γ-globulin (ICN 823102), prepared at 25 mg/ml in TE pH 8.0, and 55 μL 40% polyethylene glycol 8000 (J T Baker U222-08), prepared in TE pH 8.0. The plate was incubated at 4° C. for 60 minutes. During incubation, the harvester was rinsed with 10% PEG 8000, prepared in TE pH 8.0, and a GF/C Unifilter-96 was pre-wet with 10% PEG. The binding reaction was filtered, the retentate was washed three times with 10% PEG and dried under vacuum for a couple of minutes, then dried at 50° C. for 5 min and the plate was bottom sealed. Next, 25 μL of Microscint-20 (Packard) was added to the filter wells and the plate was top sealed. The plate wells were then counted on a TopCount (Packard).
Rat Prostate Cytosol Preparation:
Male Sprague Dawley or Wistar rats (Charles River, 200-300 g) were used for each preparation. The day before preparing the cytosol, the rats were castrated using standard surgical procedures.
The rats were euthanized by carbon dioxide asphyxiation. The rat prostates were quickly removed and placed on ice in pre-chilled, pre-weighed 50 mL plastic tubes. No more than five prostates were placed into one tube. The tubes were then weighed and the prostate tissue wet weights calculated.
To the chilled prostate tissue was then added […] of chilled homogenization buffer. The homogenization buffer was freshly prepared by mixing 10 mM Tris.HCl, pH 7.4, 1 mM sodium molybdate, 1.5 mM EDTA, 1 mM dithiothreitol, 10% (v/v) glycerol and 1% protease inhibitor cocktail (Sigma P 8340).
The prostate tissue was homogenized in a cold room using a pre-chilled Polytron PT3000 homogenizer (Brinkmann). Homogenization was performed at a speed setting of 20, three times for 10 sec bursts. The tubes containing the prostate tissue was kept on ice while homogenizing. The homogenate was allowed to rest on ice for 20 sec between bursts.
The homogenate was then placed into pre-chilled 3 mL polycarbonate ultracentrifuge tubes and centrifuged in the TLA-100 rotor of a TL-100 ultracentrifuge for 12 min at 100,000 rpm at 4° C. The resulting supernatant was stored in 1 mL aliquots at −80° C. until needed.
Binding to the androgen receptor was determined according to the protocol described in Example 86 using the above prepared rat cytosol.
% Inhibition was determined by testing dilutions of the test compound (usually duplicates of 10 μM) in the binding assay. Counts per well were measured and percents of inhibition determined. […] Counts per well were measured and IC50s determined by linear regression.

Assay [2] deals with T2, androgen receptor (AdEasy+rAR, L929 cells) (Rattus norvegicus, UniProt P15207).
T2 construct: expressed in transfected cells; host or cells: L929 cells transduced with adenovirus AdEasy+rAR
T2 sequence (P15207 1-902): T1 sequence (P15207 1-902)
The experiment in a line: L929 Androgen Receptor Functional Assay, Adenovirus Transduction. The assay is classed as cell-based. Conditions: for % Activity, L929 androgen receptor functional assay / EC50: agonist testing; for inhibition at 3 µM: L929, antagonist testing with R1881, 3000 nM; for IC50: antagonist testing with R1881; for % Inhibition, L929 androgen receptor functional assay: antagonist testing with R1881, 3000 nM. As to the method: L929 cells were plated in 96-well plates at 20,000 cells per well, in DMEM/F12 (GIBCO) containing 10% (v/v) charcoal-treated fetal bovine serum (Hyclone) and lacking phenol red. The plates were then incubated overnight at 37° C. in 5% (v/v) humidified CO2.
Test compound dilutions were prepared in 100% (v/v) DMSO, if necessary. Each dilution was made to 1250× the final desired assay concentration.
First, 2 mL of DMEM/F12 lacking phenol red was pipetted into the wells of a 2-mL 96-well assay block. Next, 4 μL of the 1250× test compound dilutions were pipetted into each well of the assay block. The mixtures within the well were then carefully mixed by pipette.
In a 15 mL or 50 mL sterile centrifuge tube, a 2.5 nM (2.5×) dilution of R1881 (methyl-trienolone) in DMEM/F12 lacking phenol red was prepared.
In a second 15 mL or 50 mL centrifuge tube a solution containing an equal volume of DMEM to the first and an equal volume of 100% (v/v) DMSO to the volume of R1881 used in the first tube was prepared.
In a 15 mL or 50 mL sterile centrifuge tube, a dilution in DMEM/F12 of the adenovirus AdEasy+rAR at an moi of 1:500 per well was prepared.
The medium was removed from the 96-well plates by inversion and dried, inverted, very briefly. As soon as possible after medium removal, 40 μL of the diluted unlabeled test compound was added to each well, in duplicate. To each well designated for antagonist testing was added 40 μL of the 2.5 nM R1881 dilution to the wells for antagonist testing. To each well designated for agonist testing was added 40 μL of the DMSO dilution. Then 20 μL of the diluted adenovirus were added to all wells. The plates were incubated for 48 hours at 37° C. in 5% (v/v) humidified CO2.
To each well was added 100 μL of Steady-Glo luciferase assay substrate (Promega) and the plates were placed on a rotary shaker for 1 min. The plates were then incubated at room temperature in the dark for one hour. The contents of each well were then transferred to a white microtiter plate (Packard) and read on a Luminoskan Ascent (Thermo Lab Systems).
L929 AR percent activity was determined by testing dilutions of the test compound using a concentration of 3000 nM unless otherwise noted. L929 percent inhibition was determined by testing dilutions of the test compound using a concentration of 3000 nM. […] Luciferase activity per well were measured and EC50s and IC50s determined by linear regression.

Assay [3] relates to testosterone-enhanced ventral prostate and seminal vesicle weights. The assay can be described thus: Ventral Prostate and Seminal Vesicle Weight in vivo Assay. The arrangement: species or system rat. The following applies: immature castrated male Sprague Dawley rats, once daily for five days, usually orally 40 mg/kg, with testosterone propionate 2 mg/kg s.c. As to the method:
Immature (approximately 50 g) castrated male Sprague Dawley rats (Charles River) were treated once daily for five days with test compound (usually given orally at 40 mg/kg in a volume of 0.3 mL, in 30% cyclodextrin or 0.5% methylcellulose vehicle) and with testosterone propionate (given subcutaneously by injection at the nape of the neck at 2 mg/kg, in a volume of 0.1 mL in sesame oil). On the sixth day, the rats were euthanized by asphyxiation in carbon dioxide. Ventral prosatates and seminal vesicles were removed and their wet weights determined.
A test compound was said to be “active” if the non weight adjusted prostate weight was ≦40 mg or the % Inhibition prostate weight, body weight adjusted was ≧40% @ 2 mg/day dosage.

Values joined by “and” are separate entries in the source; they are usually repeats but may differ in a detail not shown here. Identical values can stand only once.

In the case of `Cc1ccc(CN2CCC(O)(c3cc4cc([N+](=O)[O-])c(C(F)(F)F)cc4[nH]3)CC2)cc1` [Compound 42], in assay [1] (Concentration 1000 nM, read-out: % Inhibition, Androgen Receptor Binding (Rat Cytosol)), the inhibition at 1 µM amounted to 23%. The IC50 in assay [1] was 7100 nM.

For `CC[S+]([O-])CC(C)(O)c1cc2cc(C(F)(F)F)c([N+](=O)[O-])cc2[nH]1` (mixture of isomers) [Compound 230], the “% Activity, L929 androgen receptor functional assay” value (from here on “% Activity”) in assay [2] (3000 nM) was 0%. Moreover, the “active / inactive: inhibition of testosterone-enhanced prostate weight” value (shortened to “active / inactive: inhibition”) in assay [3] was “active”.

With `O=[N+]([O-])c1cc2cc(C3(O)CCN(Cc4ccc(Cl)cc4)CC3)[nH]c2cc1C(F)(F)F` [Compound 40], in assay [1] (Concentration 1000 nM, 1 µM), the “% Inhibition, Androgen Receptor Binding (Rat Cytosol)” value is −2.5%. Moreover, the IC50 in assay [1] amounted to 3800 nM.

With `CS(=O)(=O)n1c(C2(O)CCN(C(=O)c3ccc(Cl)cc3)CC2)cc2cc(Cl)c(C(F)(F)F)cc21` [Compound 24], the “% Inhibition, Androgen Receptor Binding (Rat Cytosol)” value in assay [1] (Concentration 1000 nM) stood at 2%.

As to `CSC(C)(O)c1cc2cc([N+](=O)[O-])c(C(F)(F)F)cc2[nH]1` (racemic) [Compound 267], the “% Activity” value in assay [2] (3000 nM, 3 µM) is −5% and 0%. Also, the “active / inactive: inhibition” value in assay [3] was “inactive”.

Consider `CCCSCC(C)(O)c1cc2cc(Cl)c(C(F)(F)F)cc2[nH]1` (racemic) [Compound 196], for which the “% Activity” value in assay [2] (3000 nM) is on record as 13%. Also, the “active / inactive: inhibition” value in assay [3] is “inactive”.

Turning to `CC(O)(CS(=O)(=O)CC(F)(F)F)c1cc2cc([N+](=O)[O-])c(C(F)(F)F)cc2[nH]1` (racemic) [Compound 208], the “% Activity” value in assay [2] (3000 nM) is 1%. Besides, in assay [3], the “active / inactive: inhibition” value is reported as “active”.

Take `CCSCC(O)(CC)c1cc2cc(C#N)c(C(F)(F)F)cc2[nH]1` (stereo not shown) [Compound 223]: in assay [2], the inhibition at 3 µM stood at 100%, the EC50 was over 8000 nM and the IC50 was 277 nM. Moreover, the “% Activity” value in assay [2] (@ 8000 nM) is 0 @ 8000 nM %. For the same compound, the “active / inactive: inhibition” value in assay [3] is on record as “active”.

On to `CC(O)(CS(=O)(=O)CC(F)(F)F)c1[nH]c2cc([N+](=O)[O-])c(C(F)(F)F)cc2c1Cl` (stereo not shown) [Compound 207], for which, in assay [2], the inhibition at 3 µM was found to be 101%; the 50% effective concentration (EC50) is over 8000 nM; the midpoint of inhibition, the IC50, lay at 492 nM; the “% Inhibition, L929 androgen receptor functional assay” value came to 101%. Further, the “% Activity” value in assay [2] (3000 nM, 3 µM) is 1% and −1%. Moreover, the “active / inactive: inhibition” value in assay [3] is “active”.

As to `CCSCC(C)(O)c1cc2cc([N+](=O)[O-])c(C(F)(F)F)cc2[nH]1` (racemic) [Compound 221], in assay [2] (3000 nM), the “% Activity” value is reported as −1%. Moreover, in assay [3], the “active / inactive: inhibition” value is “inactive”.

For the compound `CSCCC(C)(O)c1cc2cc(Cl)c(C(F)(F)F)cc2[nH]1` (racemic) [Compound 51], the “% Activity” value in assay [2] (3000 nM) stood at 2%. Also, the “active / inactive: inhibition” value in assay [3] is “inactive”.

`CCS(=O)(=O)CC(C)(O)c1cc2cc(C#N)c(C(F)(F)F)cc2n1C` (racemic) [Compound 240]: in assay [2] (3000 nM), the “% Activity” value worked out at 0%. Also, the “active / inactive: inhibition” value in assay [3] is “inactive”.

In the case of `CC[S+]([O-])CC(O)c1cc2cc([N+](=O)[O-])c(C(F)(F)F)cc2[nH]1` (mixture of isomers) [Compound 180], the “% Activity” value in assay [2] (3000 nM) is reported as 2%. Further, the “active / inactive: inhibition” value in assay [3] was “inactive”.

As for `CC(O)(CSCc1ccco1)c1cc2cc([N+](=O)[O-])c(C(F)(F)F)cc2[nH]1` (racemic) [Compound 198], in assay [2] (3000 nM), the “% Activity” value is on record as 7%. In assay [3], the “active / inactive: inhibition” value is “inactive”.

With `CCSCC(C)(O)c1cc2cc(C#N)c(C(F)(F)F)cc2[nH]1` (stereo not shown) [Compound 218, 2-(2-Ethylsulfanyl-1-hydroxy-1-methyl-ethyl)-6-trifluoromethyl-1H-indole-5-carbonitrile], the “% Activity” value in assay [2] (3000 nM) was determined as 0%. Also, the “% Inhibition, L929 androgen receptor functional assay” value in assay [2] (3 µM) turned out to be 62%. Also, the “active / inactive: inhibition” value in assay [3] was “inactive”.
